In data set [1] the test system is modified luciferase. Kind of data set: Luciferase expression in liver, lung, spleen and femur 6 hours after intravenous administration to mice. The following applies: 6 hours after intravenous 0.5 mpk, mice. Type of data set: in vivo. As for the experimental part:
The efficacy of the nanoparticle compositions presented in Table 1A was further evaluated by measuring the expression of modified luciferase in the liver, lung, spleen, and femur upon administration of a given composition. Formulations were administered intravenously to mice (n=3) at a dosage of 0.5 mpk and bioluminescence measured after 6 hours. The standard MC3 formulation and a PBS control were also tested. […] Flux in the liver was lowest for compositions including Compounds 58, 59, 137, and 141. Flux in the spleen was highest for compositions including Compounds 4, 7, 33, 34, 48, 53, 108, 129, 130, and 148, and lowest for compositions including Compounds 9, 59, 124, and 141.

The nature of data set [2]: Particle size and polydispersity index of nanoparticle compositions (Zetasizer Nano ZS). Type of data set: physicochemical. The procedure:
A Zetasizer Nano ZS (Malvern Instruments Ltd, Malvern, Worcestershire, UK) can be used to determine the particle size, the polydispersity index (PDI) and the zeta potential of the nanoparticle compositions in 1×PBS in determining particle size and 15 mM PBS in determining zeta potential.
Initial studies were performed to compare the delivery efficiency of nanoparticle compositions including various compounds according to Formula (I), (IA), (IB), (II), (IIa), (IIb), (IIc), (IId), (IIe), (IIf), (IIg), or (III). The cationic lipid MC3 is a current standard in the art. Accordingly, the standard MC3 formulation including about 50 mol % MC3, about 10 mol % DSPC, about 38.5 mol % cholesterol, and about 1.5 mol % PEG-DMG was used as a basis for this study. Nanoparticle compositions including DSPC as a phospholipid, cholesterol as a structural lipid, PEG-DMG as a PEG lipid, an RNA, and a compound according to Formula (I), (IA), (IB), (II), (IIa), (IIb), (IIc), (IId), (IIe), (IIf), (IIg), or (III) selected from Compounds 1-159, 168-170, and 173-175 were prepared according to or via methods similar to those described in Examples 1 and 2. The ratios of the lipids were 50:10:38.5:1.5 mol % for the lipid according to Formula (I), (IA), (IB), (II), (IIa), (IIb), (IIc), (IId), (IIe), (IIf), (IIg), or (III):DSPC:cholesterol:PEG-DMG. The RNA used was an mRNA encoding luciferase (Luc) or hEPO, wherein each uridine was replaced N1-methyl pseudouridine. Tables 1A-1E summarize the content and characteristics of the formulations.

[3] abbreviates: Table 1A, lipid:DSPC:cholesterol:PEG-DMG 50:10:38.5:1.5 mol %.
Setting [4] is: Table 1C, compositions for subcutaneous administration.

`CCCCCCCCC(CCCCCCCC)OC(=O)CCCCCCCN(CCO)CCCC(=O)OCC1CC1CCCCCC` (stereo not shown) [Compound 55, heptadecan-9-yl 8-((4-((2-hexylcyclopropyl)methoxy)-4-oxobutyl)(2-hydroxyethyl)amino)octanoate]: in data set [1], the “Total Flux, Liver” value stood at 1.92E+09; the “Total Flux, Lung” value is listed as 7.02E+06; the “Total Flux, Spleen” value is given as 2.63E+07. Further, the Size in data set [2] (setting [3]) is on record as 91.6 nm.

Regarding `CCCCCCCCC(CCCCCCCC)OC(=O)CCCCCCCN(CCO)CCCCCCCC(=O)OC(CCCCCCCC)C1CC1` (stereo not shown) [Compound 65, 1-Cyclopropylnonyl 8-((8-(heptadecan-9-yloxy)-8-oxooctyl)(2-hydroxyethyl)amino)octanoate], in data set [1], the “Total Flux, Liver” value is 9.56E+09; the “Total Flux, Lung” value was 3.79E+07; the “Total Flux, Spleen” value amounted to 6.57E+07. For the same compound, the Size in data set [2] (setting [3]) was found to be 63.9 nm.

On to `CCCCCCCCC(CCCCCCCC)OC(=O)CCCCCCCN(CCO)CCCC(=O)OC1CCC(CCCCC)CC1` (stereo not shown) [Compound 67, Heptadecan-9-yl 8-((2-hydroxyethyl)(4-oxo-4-((4-pentylcyclohexyl)oxy)butyl)amino)octanoate], for which, in data set [1], the “Total Flux, Liver” value is given as 3.60E+09; the “Total Flux, Lung” value is 1.68E+07; the “Total Flux, Spleen” value is reported as 2.55E+07. In data set [2] (setting [3]), this compound came in with a Size of 77 nm.

In the case of `CCCCCCCCC(CCCCCCCC)OC(=O)CCCCCCCN(CCO)CCCCCC(=O)OC1CCC(CCCCC)CC1` (stereo not shown) [Compound 68, Heptadecan-9-yl 8-((2-hydroxyethyl)(6-oxo-6-((4-pentylcyclohexyl)oxy)hexyl)amino)octanoate], in data set [1], the “Total Flux, Liver” value is reported as 8.42E+09; the “Total Flux, Lung” value came out at 3.98E+07; the “Total Flux, Spleen” value is 6.69E+07. In addition, the Size in data set [2] (setting [3]) was 76.8 nm.

For `CCCCCCCCC(C)OC(=O)CCCN(CCO)CCCCCCCC(=O)OC(CCCCCCCC)CCCCCCCC` (stereo not shown) [Compound 70, Heptadecan-9-yl 8-((4-(decan-2-yloxy)-4-oxobutyl)(2-hydroxyethyl)amino)octanoate], in data set [1], the “Total Flux, Liver” value worked out at 8.55E+08; the “Total Flux, Lung” value is listed as 6.32E+06; the “Total Flux, Spleen” value is 2.06E+06. The compound also registered a Size in data set [2] (setting [3]) of 73.7 nm.

For the compound `CCCCCCCCC(CC)OC(=O)CCCN(CCO)CCCCCCCC(=O)OC(CCCCCCCC)CCCCCCCC` (stereo not shown) [Compound 72, Heptadecan-9-yl 8-((2-hydroxyethyl)(4-oxo-4-(undecan-3-yloxy)butyl)amino)octanoate], in data set [1], the “Total Flux, Liver” value is 7.97E+08; the “Total Flux, Lung” value was found to be 1.05E+07; the “Total Flux, Spleen” value stood at 6.40E+06. In data set [2] (setting [3]), this compound displayed a Size of 76.8 nm. In data set [2] (setting [4]), this compound registered a Size of 77.3 nm.

With `CCCCCCCCC(CCC)OC(=O)CCCN(CCO)CCCCCCCC(=O)OC(CCCCCCCC)CCCCCCCC` (stereo not shown) [Compound 74, Heptadecan-9-yl 8-((4-(dodecan-4-yloxy)-4-oxobutyl)(2-hydroxyethyl)amino)octanoate], in data set [1], the “Total Flux, Liver” value is given as 1.99E+09; the “Total Flux, Lung” value is recorded as 6.93E+06; the “Total Flux, Spleen” value turned out to be 2.26E+07. In data set [2] (setting [3]), the Size is recorded as 65.6 nm.

In the case of `CCCCCCCCC(CC)OC(=O)CCCCCN(CCO)CCCCCCCC(=O)OC(CCCCCCCC)CCCCCCCC` (stereo not shown) [Compound 75, Heptadecan-9-yl 8-((2-hydroxyethyl)(6-oxo-6-(undecan-3-yloxy)hexyl)amino)octanoate], in data set [1], the “Total Flux, Liver” value amounted to 1.45E+09; the “Total Flux, Lung” value worked out at 3.92E+06; the “Total Flux, Spleen” value was determined as 5.66E+06. This compound also yielded a Size in data set [2] (setting [3]) of 92.1 nm. The compound also displayed a Size in data set [2] (setting [4]) of 88.6 nm.

`CCCCCCCCCOC(=O)CCCCCCCN(CCCCCCCC(=O)OC(CCCCCCCC)CCCCCCCC)CCCn1ccc(N)nc1=O` [Compound 115, Heptadecan-9-yl 8-((3-(4-amino-2-oxopyrimidin-1(2H)-yl)propyl)(8-(nonyloxy)-8-oxooctyl)amino)octanoate] showed a Size in data set [2] (setting [3]) of 64.5 nm.

Compound `CCCCCCCCCOC(=O)CCCCCCCN(CCCCCCCC(=O)OC(CCCCCCCC)CCCCCCCC)CCCn1cnc2c(N)ncnc21` [Compound 116, Heptadecan-9-yl 8-((3-(6-amino-9H-purin-9-yl)propyl)(8-(nonyloxy)-8-oxooctyl)amino)octanoate] returned a Size in data set [2] (setting [3]) of 63.3 nm.

As to `CCCCCCCCCOC(=O)CCCCCCCN(CCO)CCCCCCCC(=O)Oc1ccc(CCCCC)c(CCCCC)c1` [Compound 118, 3,4-Dipentylphenyl 8-((2-hydroxyethyl)(8-(nonyloxy)-8-oxooctyl)amino)octanoate], in data set [1], the “Total Flux, Liver” value was found to be 1.72E+08; the “Total Flux, Lung” value turned out to be 1.98E+06; the “Total Flux, Spleen” value is 2.49E+07. The same compound registered a Size in data set [2] (setting [3]) of 72.1 nm.

For `CCCCCCCCCOC(=O)CCCCCCCN(CCO)CCCCCCCC(=O)Oc1ccc(CCCCC)cc1` [Compound 119, Nonyl 8-((2-hydroxyethyl)(8-oxo-8-(4-pentylphenoxy)octyl)amino)octanoate], in data set [2] (setting [3]), the Size was 60.8 nm.

In the case of `CCCCCCCCC(CCCCCCCC)OC(=O)CCCCCCCN(C)CCCCCCCC(=O)OC(CCCCCCCC)CCCCCCCC` [Compound 124, Di(heptadecan-9-yl) 8,8′-(methylazanediyl)dioctanoate], in data set [1], the “Total Flux, Liver” value stood at 8.46E+06; the “Total Flux, Lung” value turned out to be 5.67E+04; the “Total Flux, Spleen” value is given as 8.06E+04. The compound also displayed a Size in data set [2] (setting [3]) of 61.3 nm.

Consider `CCCCCCCCCOC(=O)CCCN(C)CCCCCCCC(=O)OC(CCCCCCCC)CCCCCCCC` [Compound 126, Heptadecan-9-yl 8-(methyl(4-(nonyloxy)-4-oxobutyl)amino)octanoate], for which, in data set [1], the “Total Flux, Liver” value was found to be 7.41E+08; the “Total Flux, Lung” value is reported as 2.68E+06; the “Total Flux, Spleen” value worked out at 1.87E+07. Besides, the Size in data set [2] (setting [3]) is given as 77.4 nm.

Consider `CCCCCCCCC(C)OC(=O)CCCCCCCN(CCO)CCCCCCCC(=O)N(CCCCCCCC)CCCCCCCC` (stereo not shown) [Compound 130, Decan-2-yl 8-((8-(dioctylamino)-8-oxooctyl)(2-hydroxyethyl)amino)octanoate], for which, in data set [1], the “Total Flux, Liver” value is on record as 8.17E+09; the “Total Flux, Lung” value turned out to be 5.88E+07; the “Total Flux, Spleen” value is reported as 1.35E+09. For the same compound, the Size in data set [2] (setting [3]) is recorded as 107.1 nm.

With `CCCCCCCCCOC(=O)CCCCCCCN(CCCCCCCC(=O)OC(CCCCCCCC)CCCCCCCC)CCCN1C(=O)CNC1=O` [Compound 174, Heptadecan-9-yl 8-((3-(2,5-dioxoimidazolidin-1-yl)propyl)(8-(nonyloxy)-8-oxooctyl)amino)octanoate], the Size in data set [2] (setting [3]) is 84.4 nm.

In data set [2] (Table 1D, compositions for subcutaneous administration, # formulated with hEPO mRNA), `CCCCCCCCCOC(=O)CCCCCCCN(CCCCCCCC(=O)OC(CCCCCCCC)CCCCCCCC)CCCNC(=N)N` [Compound 207, Heptadecan-9-yl 8-((3-guanidinopropyl)(8-(nonyloxy)-8-oxooctyl)amino)octanoate] displayed a Size of 81.4 nm.

The record behind these values is US10857105B2, “Compounds and compositions for intracellular delivery of therapeutic agents” (ModernaTX, Inc., priority 2017, dated 2020).
